One assay deals with T1, bovine trypsin (Bos taurus, UniProt P00760).
T1 construct: purchased Sigma
T1 sequence (P00760 24-246): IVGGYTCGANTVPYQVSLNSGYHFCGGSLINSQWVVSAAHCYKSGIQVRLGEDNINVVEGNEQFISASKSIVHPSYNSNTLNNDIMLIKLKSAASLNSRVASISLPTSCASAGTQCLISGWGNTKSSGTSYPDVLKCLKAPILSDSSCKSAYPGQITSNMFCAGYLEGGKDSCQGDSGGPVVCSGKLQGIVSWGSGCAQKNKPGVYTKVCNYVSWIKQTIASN
Put plainly: Determination of anti-trypsin activity (S-2222 coloring substrate, absorbance at 405 nm). It counts as biochemical. The following applies: bovine trypsin 0.25 μg-protein/ml, S-2222 0.4 mM, Tris buffer pH 8.4, room temperature, 5 minutes; read-out: Inhibitory Action against Trypsin Activity (IC50 (nM)). The method, then:
Determination of Anti-trypsin Activity
Anti-trypsin activity was determined according to methods described by Taniuchi et al. [Thromb. Haemost., 79, 543 (1998)], which were partially modified. S-2222, a coloring substrate (5 μl, final concentration: 0.4 mM, Daiichi Pure Chemicals Co., Ltd.) and the test compound (5 μl) were mixed with Tris hydrochloride buffered solution (50 mM, 85 μl, pH: 8.4) containing NaCl (0.9%). To this solution, bovine trypsin (5 μl, final concentration: 0.25 μg-protein/ml, Sigma) was added and the reaction was started. In the control group, distilled water was added to the Tris-buffered solution instead of the test compound. The reaction mixture (in total: 0.1 ml) was incubated at room temperature. Optical absorbance was continuously determined at 405 nm with a 96-well microplate reader (Model 550, Biorad) and increase in the absorbance for 5 minutes was calculated as an indicator of trypsin activity. To assess anti-trypsin activities of the test compounds, concentrations of the test compounds to inhibit the trypsin activity by 50% (IC50) were calculated.

Another assay addresses T2, human factor-Xa (Homo sapiens, UniProt P00742).
T2 construct: purchased Cosmobio Co., Ltd
Put plainly: Determination of anti-factor Xa activity (S-2222 coloring substrate, absorbance at 405 nm). The following applies: human factor-Xa 0.25 unit/ml, S-2222 0.4 mM, Tris buffer pH 8.4, room temperature, 5 minutes; read-out: Inhibitory Action against Factor Xa Activity (IC50 (nM)). It counts as biochemical. As to the method: Determination of Anti-factor Xa Activity
Anti-factor Xa activity was determined according to methods described by Hara et al. [Thrombo. Haemost., 71, 314 (1994)], which were slightly modified. S-2222, a coloring substrate (0.4 mM, Daiichi Pure Chemicals Co., Ltd.) and the test compounds were mixed in Tris hydrochloride buffered solution (50 mM, pH: 8.4) containing NaCl (0.9%). To this solution, human factor-Xa (0.25 unit/ml, Cosmobio Co., Ltd.) was added and the reaction was started. In the control group, distilled water was added to the Tris-buffered solution instead of the test compound. The reaction mixture (in total: 0.1 ml) was incubated at room temperature for 5 minutes. Optical absorbance of the reaction mixture was continuously determined at 405 nm with a 96-well microplate reader (Model 550, Biorad) and increase in the absorbance for 5 minutes was calculated as an indicator of factor Xa activity. To assess anti-factor Xa activities of the test compounds, concentrations of the test compounds to inhibit the factor Xa activity by 50% (IC50) were calculated.

Counter-ions that a name gives are not always drawn.

T2 sequence (P00742 235-488 limits assumed): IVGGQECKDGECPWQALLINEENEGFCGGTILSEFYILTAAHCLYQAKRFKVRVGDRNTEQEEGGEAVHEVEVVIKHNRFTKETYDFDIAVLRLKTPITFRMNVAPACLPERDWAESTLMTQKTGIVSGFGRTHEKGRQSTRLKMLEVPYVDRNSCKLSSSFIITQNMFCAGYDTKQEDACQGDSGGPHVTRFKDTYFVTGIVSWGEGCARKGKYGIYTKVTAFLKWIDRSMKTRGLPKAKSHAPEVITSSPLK
T2 sequence (P00742 41-179 partner limits assumed): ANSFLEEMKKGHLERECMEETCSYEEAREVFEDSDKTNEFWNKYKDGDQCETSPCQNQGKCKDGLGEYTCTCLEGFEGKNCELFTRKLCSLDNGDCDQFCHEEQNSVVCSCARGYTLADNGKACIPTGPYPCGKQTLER

Consider `Cc1cc(N(C/C=C/c2cccc(C(=N)N)c2)S(=O)(=O)CC(=O)O)ccc1OC1CCN(C2=NCCC2)CC1` [Example 66, N-[3-(3-Amidinophenyl)-2-(E)-propenyl]-N-[4-[1-(4,5-dihydro-3H-pyrrol-2-yl)piperidin-4-yloxy-]-3-methylphenyl]sulfamoylacetic acid dihydrochloride], for which the values for the IC50 at bovine trypsin and on human factor-Xa were 5600 nM and 8.3 nM, respectively.

`CCOC(=O)CS(=O)(=O)N(C/C=C/c1cccc(C(=N)N)c1)c1ccc(OC2CCN(C3=NCCC3)CC2)c(C(F)(F)F)c1` [Example 77, Ethyl N-[3-(3-amidinophenyl)-2-(E)-propenyl]-N-[4-[1-(4,5-dihydro-3H-pyrrol-2-yl)piperidin-4-yloxy]-3-trifluoromethylphenyl]sulfamoylacetate dihydrochloride]: the IC50 at bovine trypsin is 3700 nM; at human factor-Xa, 12 nM.

For `CCOC(=O)CS(=O)(=O)N(C/C=C/c1cccc(C(=N)N)c1)c1ccc(OC2CCN(C(=N)CC)CC2)c(Cl)c1` [Example 49, Ethyl N-[3-(3-amidinophenyl)-2-(E)-propenyl]-N-[3-chloro-4-[1-(1-iminopropyl)piperidin-4-yloxy]phenyl-1 sulfamoylacetatedihydrochloride], the IC50 stood at 860 nM on bovine trypsin and 6.8 nM at human factor-Xa.

`N=C(N)c1cccc(/C=C/CN(c2ccc(OC3CCN4CCCC4C3)c(Cl)c2)S(=O)(=O)CC(=O)O)c1` (stereo not shown) [Example 42, dihydrochloride]: the IC50 at bovine trypsin worked out at 7300 nM; at human factor-Xa, 11 nM.

`N=C(N)c1cccc(/C=C/CN(c2ccc(OC3CCN(C4=NCCC4)CC3)cc2)S(=O)(=O)CC(=O)O)c1` [Example 60, N-[3-(3-Amidinophenyl)-2-(E)-propenyl]-N-[4-[1-(4,5-dihydro-3H-pyrrol-2-yl)piperidin-4-yloxy]phenyl]sulfamoylacetic acid dihydrochloride]: the results for the IC50 on bovine trypsin and on human factor-Xa were 3100 nM and 14 nM, respectively.
